The source of these data is ChEMBL document CHEMBL1153015, “A new type of five-membered heterocyclic inhibitors of basic metallocarboxypeptidases” (Eur J Med Chem, 2009).

A word on the Ki: it is the dissociation constant of the complex between target and ligand, obtained from inhibition or displacement.

Assay [1] deals with T1, Carboxypeptidase B (Homo sapiens, UniProt P15086).
T1 sequence (P15086 whole entry): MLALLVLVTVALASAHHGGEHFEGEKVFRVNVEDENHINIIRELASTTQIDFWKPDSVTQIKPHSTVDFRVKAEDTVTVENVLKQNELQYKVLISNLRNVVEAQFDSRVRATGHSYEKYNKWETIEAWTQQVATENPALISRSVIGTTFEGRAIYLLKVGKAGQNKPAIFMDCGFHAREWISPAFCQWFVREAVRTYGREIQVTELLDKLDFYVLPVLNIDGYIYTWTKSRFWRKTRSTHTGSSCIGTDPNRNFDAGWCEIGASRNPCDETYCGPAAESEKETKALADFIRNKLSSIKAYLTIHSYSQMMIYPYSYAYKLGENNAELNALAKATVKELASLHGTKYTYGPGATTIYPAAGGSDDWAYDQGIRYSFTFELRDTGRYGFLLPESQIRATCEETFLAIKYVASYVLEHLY
Kind of assay: Inhibition of human recombinant carboxypeptidase B expressed in Pichia pastoris system.

Another assay concerns the target T2, Carboxypeptidase A1 (Bos taurus, UniProt P00730).
T2 sequence (P00730 whole entry): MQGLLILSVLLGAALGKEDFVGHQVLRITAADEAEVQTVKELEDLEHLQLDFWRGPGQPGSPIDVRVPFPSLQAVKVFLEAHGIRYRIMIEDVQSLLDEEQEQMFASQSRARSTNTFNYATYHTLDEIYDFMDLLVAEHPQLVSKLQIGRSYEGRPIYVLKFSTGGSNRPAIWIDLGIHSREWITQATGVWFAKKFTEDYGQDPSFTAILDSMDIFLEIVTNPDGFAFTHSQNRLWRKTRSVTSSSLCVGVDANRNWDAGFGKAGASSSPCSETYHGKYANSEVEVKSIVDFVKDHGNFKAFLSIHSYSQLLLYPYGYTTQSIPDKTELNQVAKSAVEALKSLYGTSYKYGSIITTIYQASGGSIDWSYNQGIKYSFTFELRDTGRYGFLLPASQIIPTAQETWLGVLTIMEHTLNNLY
Put plainly: Inhibition of bovine carboxypeptidase A1.

Assay [2] has as its target T3, Carboxypeptidase B (Helicoverpa zea, UniProt Q3T905).
T3 sequence (Q3T905 whole entry): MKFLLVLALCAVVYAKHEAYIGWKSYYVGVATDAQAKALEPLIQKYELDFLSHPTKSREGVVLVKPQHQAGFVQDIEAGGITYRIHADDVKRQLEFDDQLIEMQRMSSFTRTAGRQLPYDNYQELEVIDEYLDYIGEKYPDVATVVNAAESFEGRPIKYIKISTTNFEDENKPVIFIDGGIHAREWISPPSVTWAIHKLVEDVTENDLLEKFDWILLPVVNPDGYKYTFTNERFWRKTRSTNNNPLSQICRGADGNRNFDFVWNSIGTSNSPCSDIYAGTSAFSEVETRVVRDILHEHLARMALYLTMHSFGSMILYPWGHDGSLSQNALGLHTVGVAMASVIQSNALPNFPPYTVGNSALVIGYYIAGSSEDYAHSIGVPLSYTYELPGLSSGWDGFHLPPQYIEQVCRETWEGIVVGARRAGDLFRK
Kind of assay: Inhibition of corn earworm recombinant carboxypeptidase B expressed in Pichia pastoris system.

A short description of assay [3]: Selectivity ratio, Ki for bovine carboxypeptidase A1 to Ki for human recombinant carboxypeptidase B.

SMILES strings stand for the structures.

As to `Cc1cc(S(=O)(=O)N(Cc2ccco2)Cc2ccccc2Cl)ccc1-n1cnnn1`, the figures for the Ki on Carboxypeptidase B [1], on Carboxypeptidase A1 and at Carboxypeptidase B [2] (read-out: Ki) were 16.6 µM, 159 µM and 12.6 µM, respectively.

Consider `Cc1ccccc1-c1nnc(SCC(=O)c2ccccc2F)o1`, for which the Ki on Carboxypeptidase B [1] was determined as 14.7 µM; on Carboxypeptidase A1, 39.3 µM; on Carboxypeptidase B [2] (read-out: Ki), 40 µM.

On to `O=S(=O)(NCc1ccccc1)c1ccc(S(=O)(=O)N(Cc2cccs2)CC2CCCO2)cc1` (configuration not stated), for which the Ki was 23 µM at Carboxypeptidase B [1], 19.4 µM on Carboxypeptidase A1 and “Not Active” at Carboxypeptidase B [2].

`O=C(O)c1ccccc1C(=O)N1CCC(C(=O)c2ccccc2)CC1`: the figures for the Ki at Carboxypeptidase B [1], on Carboxypeptidase A1 and at Carboxypeptidase B [2] (read-out: Ki) were 20.7 µM, 320 µM and 19.6 µM, respectively.

As for `O=C(O)CC(Cc1ccccc1)C(=O)O` (racemic), the figures for the Ki on Carboxypeptidase B [1], on Carboxypeptidase A1 and at Carboxypeptidase B [2] (read-out: Ki) were 10 µM, 0.5 µM and 11.9 µM, respectively.

Consider `O=C(CSc1nnc(-c2ccco2)n1Cc1ccccc1)c1ccc(F)cc1`, for which the Ki at Carboxypeptidase B [1] was 74.5 µM; at Carboxypeptidase A1, 236 µM; at Carboxypeptidase B [2] it was “Not Active”.

With `COc1ccccc1-c1nnc(SCC(=O)OC(C)C)n1Cc1ccccc1`, the Ki on Carboxypeptidase B [1] amounted to 7.4 µM; at Carboxypeptidase A1 it was 160 µM; on Carboxypeptidase B [2] (read-out: Ki), 36.1 µM.

Turning to `O=C(CSc1nnc(-c2ccccc2F)o1)OCc1ccccc1`, the Ki on Carboxypeptidase B [1] was found to be 67.2 µM; at Carboxypeptidase A1, 32 µM; on Carboxypeptidase B [2] (read-out: Ki), 33.4 µM.

Turning to `O=S(=O)(NCc1cccs1)c1ccc(-c2nnc(SCc3ccccc3Cl)o2)cc1`, the Ki was found to be 40 µM on Carboxypeptidase B [1], 67.3 µM on Carboxypeptidase A1 and 1.4 µM on Carboxypeptidase B [2] (read-out: Ki).

As for `Cc1cccc(CCc2nnc(SCC(=O)O)n2Cc2ccccc2)c1`, the Ki on Carboxypeptidase B [1] was determined as 196 µM; at Carboxypeptidase A1, 217 µM; at Carboxypeptidase B [2] (read-out: Ki), 57 µM.

For `NC(=O)CSc1nnc(-c2cccs2)n1Cc1ccccc1`, the inhibitory constant (Ki) at Carboxypeptidase B [1] stood at 11.6 µM; at Carboxypeptidase A1, 155 µM; at Carboxypeptidase B [2] (read-out: Ki), 27.2 µM.

For `O=C(O)c1cccc(-n2nnnc2SCC(=O)c2ccccc2F)c1`, the results for the Ki on Carboxypeptidase B [1], on Carboxypeptidase A1 and on Carboxypeptidase B [2] (read-out: Ki) were 33.6 µM, 550 µM and 53.8 µM, respectively.

On to `COc1cccc(CN(Cc2cccnc2)S(=O)(=O)c2ccc(-n3cnnn3)c(C)c2)c1`, for which the figures for the Ki at Carboxypeptidase B [1], on Carboxypeptidase A1 and at Carboxypeptidase B [2] (read-out: Ki) were 23.9 µM, 148 µM and 28.4 µM, respectively.

`N=C(N)NCCSC(CC(=O)O)C(=O)O` (racemic): at Carboxypeptidase B [1], the Ki amounted to 1.1 µM.

Turning to `Cc1ccccc1CCNS(=O)(=O)c1ccc(-n2cnnn2)c(C)c1`, the figures for the Ki on Carboxypeptidase B [1], on Carboxypeptidase A1 and on Carboxypeptidase B [2] (read-out: Ki) were 25.9 µM, 138 µM and 38 µM, respectively.

With `Cc1ccc(C(=O)CSc2nnc(COc3ccc(Cl)cc3)o2)cc1`, the Ki was determined as 11.7 µM at Carboxypeptidase B [1], 36.7 µM on Carboxypeptidase A1 and 12 µM at Carboxypeptidase B [2] (read-out: Ki).

Consider `COc1ccc(C(=O)Cn2nnc(-c3ccccc3NC(=O)C3CC3)n2)cc1`, for which the Ki at Carboxypeptidase B [1] came out at 292 µM; on Carboxypeptidase A1, 41.3 µM; at Carboxypeptidase B [2] (read-out: Ki), 31 µM.

On to `COC(=O)CSc1nnc(-c2ccccc2O)n1Cc1ccccc1`, for which the Ki on Carboxypeptidase B [1] was determined as 4.9 µM; at Carboxypeptidase A1, 159 µM; at Carboxypeptidase B [2] (read-out: Ki) it was 41.6 µM. Moreover, the Ratio Ki in assay [3] is 30.

On to `O=C(CSc1nnc(-c2ccccc2O)o1)c1ccc(Cl)cc1`, for which the Ki on Carboxypeptidase B [1] came out at 7.5 µM; at Carboxypeptidase A1, 2.1 µM; at Carboxypeptidase B [2] (read-out: Ki), 1 µM. For the same compound, the Ratio Ki in assay [3] was determined as 20.

On to `COc1cccc(CSc2nnc(Cc3csc(Nc4cccc(Cl)c4)n3)o2)c1`, for which the Ki was 1.2 µM at Carboxypeptidase B [1], 22.5 µM on Carboxypeptidase A1 and 3.6 µM on Carboxypeptidase B [2] (read-out: Ki).

Consider `Cc1ccc(C)c2c1[nH]c1nc(SCC(=O)c3ccc(F)cc3)nnc12`, for which the values for the Ki at Carboxypeptidase B [1], on Carboxypeptidase A1 and on Carboxypeptidase B [2] (read-out: Ki) were 15 µM, 86.3 µM and 9 µM, respectively.

For `O=C(CSc1nnc(-c2ccc(O)cc2)n1Cc1ccco1)c1cccs1`, the values for the Ki on Carboxypeptidase B [1], at Carboxypeptidase A1 and on Carboxypeptidase B [2] were 9.1 µM, 74.5 µM and “Not Active”, respectively.

Take `COc1ccccc1Cn1c(SCC(=O)N2CCC(C)CC2)nnc1-c1ccncc1`: the Ki at Carboxypeptidase B [1] stood at 20.8 µM; at Carboxypeptidase A1 it was 381 µM; at Carboxypeptidase B [2] (read-out: Ki), 30.2 µM.

For the compound `O=C(C1CC1)N(Cc1ccccc1)c1nc(-c2ccccc2)cs1`, the Ki at Carboxypeptidase B [1] worked out at 4.5 µM; at Carboxypeptidase A1, 800 µM; at Carboxypeptidase B [2] (read-out: Ki) it was 1.2 µM. For the same compound, in assay [3], the Ratio Ki is 160.

Consider `Cc1ccc(S(=O)(=O)N2CCN(C(=O)CNCc3ccncc3)CC2)cc1`, for which the results for the Ki at Carboxypeptidase B [1], at Carboxypeptidase A1 and on Carboxypeptidase B [2] (read-out: Ki) were 364 µM, 250 µM and 18 µM, respectively.

In the case of `CCOC(=O)C(Sc1nnc(COc2ccc(CC)cc2)n1CC)C(C)C` (configuration not stated), the figures for the Ki on Carboxypeptidase B [1], at Carboxypeptidase A1 and at Carboxypeptidase B [2] (read-out: Ki) were 10.8 µM, 22 µM and 11.9 µM, respectively.

With `CCCN(C(=O)Cc1ccccc1OC)c1nnc(-c2ccc(OC)cc2)s1`, the Ki on Carboxypeptidase B [1] is 25.1 µM; at Carboxypeptidase A1, 128 µM; at Carboxypeptidase B [2] (read-out: Ki) it was 19.7 µM.
